From ChEMBL document CHEMBL1201862, “PubChem BioAssay data set” (2004)
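Where inhibition never reached the appropriate level, the endpoint shown equals the highest concentration tested. Otherwise, values were interpolated linearly from a five-concentration, 48-hour dose response in 96-well plates. GI50 is the concentration that inhibits growth by half.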 Active and inactive are the calls of the source. Rule as the data show it: active = GI50 up to about 1.1 µM and inactive = higher.

What was measured:
Test in all cases: NCI anticancer screen, dose series, 48 h
ACHN = tested on: ACHN
CCRF-CEM = tested on: CCRF-CEM
COLO 205 = tested on: COLO 205
HCC 2998 = tested on: HCC 2998
HOP-62 = tested on: HOP-62
KM12 = tested on: KM12
LXFL 529 = tested on: LXFL 529
Malme-3M = tested on: Malme-3M
OVCAR-5 = tested on: OVCAR-5
OVCAR-8 = tested on: OVCAR-8
RPMI-8226 = tested on: RPMI-8226
RXF 393 = tested on: RXF 393
SF-268 = tested on: SF-268
SK-MEL-2 = tested on: SK-MEL-2
SNB-19 = tested on: SNB-19
TK-10 = tested on: TK-10
UACC-257 = tested on: UACC-257
UACC-62 = tested on: UACC-62
BT-549 = tested on: BT-549
PC-3 = tested on: PC-3

Compound	GI50 (ACHN)	GI50 (CCRF-CEM)	GI50 (COLO 205)	GI50 (HCC 2998)	GI50 (HOP-62)	GI50 (KM12)	GI50 (LXFL 529)	GI50 (Malme-3M)	GI50 (OVCAR-5)	GI50 (OVCAR-8)	GI50 (RPMI-8226)	GI50 (RXF 393)	GI50 (SF-268)	GI50 (SK-MEL-2)	GI50 (SNB-19)	GI50 (TK-10)	GI50 (UACC-257)	GI50 (UACC-62)	GI50 (BT-549)	GI50 (PC-3)
COc1cc2cccc(/N=C\c3ccccc3Cl)c2cc1OC	> 100 µM (inactive)	22.8 µM (inactive)	> 100 µM (inactive)	> 100 µM (inactive)	> 100 µM (inactive)	> 100 µM (inactive)	> 100 µM (inactive)	> 100 µM (inactive)	> 100 µM (inactive)	> 100 µM (inactive)	78.2 µM (inactive)	> 100 µM (inactive)	> 100 µM (inactive)	> 100 µM (inactive)	> 100 µM (inactive)	> 100 µM (inactive)	> 100 µM (inactive)	66.5 µM (inactive)	–	–
CCOC(=O)N1N=NC2C3OC(C[C@@]3(C#N)OC(C)=O)[C@H]21 (stereo partly drawn)	> 100 µM (inactive)	> 100 µM (inactive)	> 100 µM (inactive)	> 100 µM (inactive)	> 100 µM (inactive)	> 100 µM (inactive)	> 100 µM (inactive)	> 100 µM (inactive)	> 100 µM (inactive)	> 100 µM (inactive)	> 100 µM (inactive)	> 100 µM (inactive)	51.9 µM (inactive)	> 100 µM (inactive)	> 100 µM (inactive)	> 100 µM (inactive)	> 100 µM (inactive)	> 100 µM (inactive)	–	–
Nc1nncc2c1c(Br)cn2C1OC(CO)C(O)C1O (stereo not drawn)	15.1 µM (inactive)	2.33 µM (inactive)	48.6 µM (inactive)	5.27 µM (inactive)	22 µM (inactive)	43.9 µM (inactive)	23.7 µM (inactive)	> 79.1 µM (inactive)	> 62.2 µM (inactive)	1.49 µM (inactive)	10.2 µM (inactive)	30.8 µM (inactive)	35.1 µM (inactive)	> 40.8 µM (inactive)	64.3 µM (inactive)	51.4 µM (inactive)	> 100 µM (inactive)	56.9 µM (inactive)	–	–
C/C(CC(=O)NC1=CC=C(NC(=O)C/C(C)=N\Nc2ccccc2)CC1)=N/Nc1ccccc1	> 100 µM (inactive)	> 100 µM (inactive)	27.1 µM (inactive)	> 100 µM (inactive)	> 100 µM (inactive)	> 100 µM (inactive)	> 100 µM (inactive)	> 100 µM (inactive)	> 100 µM (inactive)	> 100 µM (inactive)	> 100 µM (inactive)	> 100 µM (inactive)	> 100 µM (inactive)	> 100 µM (inactive)	> 100 µM (inactive)	> 100 µM (inactive)	> 100 µM (inactive)	> 100 µM (inactive)	–	–
Brc1ccccc1/C=N\C12CC3CC(CC(C3)C1)C2	> 68.2 µM (inactive)	4.54 µM (inactive)	> 100 µM (inactive)	> 100 µM (inactive)	> 81.8 µM (inactive)	> 100 µM (inactive)	10.3 µM (inactive)	> 67.9 µM (inactive)	> 100 µM (inactive)	> 100 µM (inactive)	3.31 µM (inactive)	97.9 µM (inactive)	99.1 µM (inactive)	> 81.3 µM (inactive)	> 100 µM (inactive)	> 100 µM (inactive)	> 79.4 µM (inactive)	12 µM (inactive)	> 100 µM (inactive)	43.2 µM (inactive)
O=C(CSc1nnc(Cc2ccccc2)o1)Nc1ccc(Cl)cc1Cl	> 100 µM (inactive)	> 100 µM (inactive)	> 100 µM (inactive)	> 100 µM (inactive)	> 100 µM (inactive)	> 100 µM (inactive)	> 100 µM (inactive)	> 100 µM (inactive)	> 100 µM (inactive)	> 100 µM (inactive)	> 100 µM (inactive)	> 100 µM (inactive)	> 100 µM (inactive)	> 100 µM (inactive)	> 100 µM (inactive)	> 100 µM (inactive)	> 100 µM (inactive)	> 100 µM (inactive)	–	–
COc1cc(C(=O)NO)ccc1O	> 100 µM (inactive)	> 100 µM (inactive)	> 100 µM (inactive)	> 100 µM (inactive)	> 100 µM (inactive)	> 100 µM (inactive)	> 100 µM (inactive)	> 100 µM (inactive)	> 100 µM (inactive)	> 100 µM (inactive)	> 100 µM (inactive)	> 100 µM (inactive)	> 100 µM (inactive)	> 100 µM (inactive)	> 100 µM (inactive)	> 100 µM (inactive)	> 100 µM (inactive)	> 100 µM (inactive)	–	–
O=C1C=C(Nc2cccnc2)c2ccccc2C1=O	7.73 µM (inactive)	15.2 µM (inactive)	21.6 µM (inactive)	11.2 µM (inactive)	4.23 µM (inactive)	4.03 µM (inactive)	11.4 µM (inactive)	2.34 µM (inactive)	8.13 µM (inactive)	7.55 µM (inactive)	9.04 µM (inactive)	13.1 µM (inactive)	7.91 µM (inactive)	7.23 µM (inactive)	7.1 µM (inactive)	19.1 µM (inactive)	1.9 µM (inactive)	1.68 µM (inactive)	1.44 µM (inactive)	8.85 µM (inactive)
COCC(C#N)NC1CC(OC2CC(O)(C(=O)CO)Cc3c(O)c4c(c(O)c32)C(=O)c2c(OC)cccc2C4=O)OC(C)C1O (stereo not drawn)	0.0581 µM (active)	0.0202 µM (active)	0.0483 µM (active)	0.145 µM (active)	0.0287 µM (active)	0.103 µM (active)	0.083 µM (active)	0.0344 µM (active)	0.247 µM (active)	0.0676 µM (active)	0.0282 µM (active)	0.177 µM (active)	0.0419 µM (active)	0.136 µM (active)	0.0427 µM (active)	0.19 µM (active)	0.091 µM (active)	0.0574 µM (active)	0.138 µM (active)	0.0942 µM (active)
